In PubChem BioAssay (NCI):
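Five compound concentrations were applied to cells in 96-well plates for 48 hours; endpoints were derived by simple linear interpolation of the resulting dose-response curve. TGI marks complete inhibition of growth.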

Experiments:
Assay in all cases: NCI tumour cell line growth inhibition, 48 h
[1] = tested on: DMS 114 small cell lung
[2] = tested on: HOP-62 NSCLC
[3] = tested on: UACC-62 melanoma
[4] = tested on: SNB-78 CNS
[5] = tested on: LXFL 529 NSCLC
[6] = tested on: UO-31 renal
[7] = tested on: COLO 205 colon
[8] = tested on: CCRF-CEM leukemia
[9] = tested on: IGROV1 ovarian
[10] = tested on: OVCAR-8 ovarian
[11] = tested on: SF-295 CNS
[12] = tested on: OVCAR-5 ovarian
[13] = tested on: DMS 273 small cell lung
[14] = tested on: SK-MEL-5 melanoma
[15] = tested on: DLD-1 colon
[16] = tested on: TK-10 renal
[17] = tested on: OVCAR-4 ovarian
[18] = tested on: UACC-257 melanoma
[19] = tested on: KM20L2 colon
[20] = tested on: SN12C renal
[21] = tested on: A549 NSCLC
[22] = tested on: HCC-2998 colon
[23] = tested on: HCT-15 colon
[24] = tested on: SK-OV-3 ovarian
[25] = tested on: K-562 leukemia
[26] = tested on: LOX IMVI melanoma
[27] = tested on: MALME-3M melanoma
[28] = tested on: NCI-H23 lung
[29] = tested on: OVCAR-3 ovarian
[30] = tested on: KM12 colon
[31] = tested on: HCT-116 colon
[32] = tested on: HL-60(TB) leukemia
[33] = tested on: 786-0 renal
[34] = tested on: SF-268 CNS
[35] = tested on: ACHN renal
[36] = tested on: U251 CNS
[37] = tested on: HOP-92 NSCLC
[38] = tested on: SNB-75 CNS
[39] = tested on: CAKI-1 renal
[40] = tested on: SF-539 CNS
[41] = tested on: SNB-19 CNS
[42] = tested on: HOP-18 NSCLC
[43] = tested on: NCI-H522 lung
[44] = tested on: SR leukemia
[45] = tested on: M14 melanoma
[46] = tested on: SK-MEL-28 melanoma
[47] = tested on: MOLT-4 leukemia
[48] = tested on: SK-MEL-2 melanoma
[49] = tested on: SW-620 colon
[50] = tested on: NCI-H226 lung
[51] = tested on: EKVX NSCLC
[52] = tested on: RXF 393 renal
[53] = tested on: HT29 colon
[54] = tested on: A498 renal
[55] = tested on: NCI-H460 lung
[56] = tested on: M19-MEL melanoma

## CN(C)CCNC(=O)c1ccc2ccc3cccnc3c2n1
[1]
  TGI: 25.6 µM
[2]
  TGI: 63.1 µM
[3]
  TGI: 30.4 µM
[4]
  TGI: > 34.8 µM
[5]
  TGI: > 100 µM
[6]
  TGI: 47.9 µM
[7]
  TGI: 23.9 µM
[8]
  TGI: > 100 µM
[9]
  TGI: > 100 µM
[10]
  TGI: > 100 µM
[11]
  TGI: 88.2 µM
[12]
  TGI: 47.8 µM
[13]
  TGI: 22.6 µM
[14]
  TGI: 28.3 µM
[15]
  TGI: > 84.4 µM
[16]
  TGI: 62.8 µM
[17]
  TGI: > 69.2 µM
[18]
  TGI: 35.4 µM
[19]
  TGI: 72 µM
[20]
  TGI: > 92.9 µM
[21]
  TGI: > 52.9 µM
[22]
  TGI: 25.4 µM
[23]
  TGI: 63.5 µM
[24]
  TGI: > 100 µM
[25]
  TGI: > 100 µM
[26]
  TGI: 49.8 µM
[27]
  TGI: 28.7 µM
[28]
  TGI: 42.2 µM
[29]
  TGI: 99 µM
[30]
  TGI: 95.6 µM
[31]
  TGI: 27.2 µM
[32]
  TGI: > 84 µM
[33]
  TGI: > 100 µM
[34]
  TGI: 54.5 µM
[35]
  TGI: 97.3 µM
[36]
  TGI: > 88.8 µM
[37]
  TGI: 65.2 µM
[38]
  TGI: 34.4 µM
[39]
  TGI: > 85.5 µM
[40]
  TGI: 33.7 µM
[41]
  TGI: > 93 µM
[42]
  TGI: > 100 µM
[43]
  TGI: 25.5 µM
[44]
  TGI: 30.7 µM
[45]
  TGI: 33.1 µM
[46]
  TGI: > 61.6 µM
[47]
  TGI: 32.3 µM
[48]
  TGI: 29.3 µM
[49]
  TGI: > 100 µM
[50]
  TGI: 39.6 µM
[51]
  TGI: 48.3 µM
[52]
  TGI: 27.3 µM
[53]
  TGI: > 100 µM
[54]
  TGI: > 57.4 µM
[55]
  TGI: 35.9 µM

## O=c1cc2n(c(=O)[nH]1)C1OC(C(O)C1O)[C@@H]2CCO (stereo partly drawn)
[56]
  TGI: > 100 µM
[1]
  TGI: > 100 µM
[2]
  TGI: > 100 µM
[3]
  TGI: > 100 µM
[4]
  TGI: > 100 µM
[5]
  TGI: > 100 µM
[6]
  TGI: > 100 µM
[8]
  TGI: > 100 µM
[9]
  TGI: > 100 µM
[10]
  TGI: > 100 µM
[11]
  TGI: > 100 µM
[12]
  TGI: > 100 µM
[13]
  TGI: > 100 µM
[14]
  TGI: > 100 µM
[15]
  TGI: > 100 µM
[16]
  TGI: > 100 µM
[17]
  TGI: > 100 µM
[18]
  TGI: > 100 µM
[19]
  TGI: > 100 µM
[20]
  TGI: > 100 µM
[21]
  TGI: > 100 µM
[24]
  TGI: > 100 µM
[25]
  TGI: > 100 µM
[26]
  TGI: > 100 µM
[27]
  TGI: > 100 µM
[28]
  TGI: > 100 µM
[30]
  TGI: > 100 µM
[32]
  TGI: > 100 µM
[33]
  TGI: > 100 µM
[34]
  TGI: > 100 µM
[35]
  TGI: > 100 µM
[36]
  TGI: > 100 µM
[37]
  TGI: > 100 µM
[39]
  TGI: > 100 µM
[40]
  TGI: > 100 µM
[41]
  TGI: > 100 µM
[43]
  TGI: > 100 µM
[44]
  TGI: > 100 µM
[45]
  TGI: > 100 µM
[46]
  TGI: > 100 µM
[47]
  TGI: > 100 µM
[48]
  TGI: > 100 µM
[49]
  TGI: > 100 µM
[51]
  TGI: > 100 µM
[52]
  TGI: > 100 µM
[53]
  TGI: > 100 µM
[54]
  TGI: > 100 µM
[55]
  TGI: > 100 µM
